Assay results reported in patent US11931424B2, “Combination MCL-1 inhibitors with anti-body drug conjugates” (Gilead Sciences, Inc., priority 2021, dated 2024).
Counter-ions that a name gives are not always drawn.

System: panel of breast cancer cell lines
Assay: Compound A with targeted agents and chemotherapies, 72-hour in vitro proliferation assays
Type: cell-based
Settings: 72-hour proliferation
[1] = AU565 cell line, compound A × partner
[2] = BT-20 cell line, compound A × partner
[3] = BT-474 cell line, compound A × partner
[4] = BT-549 cell line, compound A × partner
[5] = CAL-51 cell line, compound A × partner
[6] = CAL-85-1 cell line, compound A × partner
[7] = CAL-120 cell line, compound A × partner
[8] = CAL-148 cell line, compound A × partner
[9] = CAMA-1 cell line, compound A × partner
[10] = DU-4475 cell line, compound A × partner
[11] = EVSA-T cell line, compound A × partner
[12] = MCF7 cells, Compound A × partner agent
[13] = MDA-MB-175-VII cells, Compound A × partner agent
[14] = MDA-MB-231 cells, Compound A × partner agent
[15] = MDA-MB-361 cells, Compound A × partner agent
[16] = MDA-MB-436 cells, Compound A × partner agent
[17] = MDA-MB-453 cells, Compound A × partner agent
[18] = MDA-MB-468 cells, Compound A × partner agent
[19] = SUM159PT cells, combination of compound A with the named agent
[20] = T47D cells, combination of compound A with the named agent
[21] = ZR-75-1 cells, combination of compound A with the named agent
[22] = ZR-75-30 cells, combination of compound A with the named agent

CS(=O)(=O)CCNCc1ccc(-c2ccc3ncnc(Nc4ccc(OCc5cccc(F)c5)c(Cl)c4)c3c2)o1 [Lapatinib Ditosylate]
Best CI [1]: 0.44
Best CI [2]: 0.18
Best CI [3]: 0.02
Best CI [4]: 0.45
Best CI [5]: 1.14
Best CI [6]: 0.58
Best CI [7]: 1.36
Best CI [8]: 0.38
Best CI [9]: 0.90
Best CI [10]: 0.65
Best CI [11]: 0.77
Best CI (HCC38, compound A × partner): 0.87
Best CI (HCC70, compound A × partner): 0.35
Best CI (HCC1143, compound A × partner): 0.54
Best CI (HCC1569, compound A × partner): 0.53
Best CI (HCC1806, compound A × partner): 0.74
Best CI (HCC1937, compound A × partner): 1.22
Best CI (HCC1954, compound A × partner): 0.07
Best CI (HCC2218, compound A × partner): 0.02
Best CI (HDQ-P1, compound A × partner): 0.87
Best CI (HMC-1-8, compound A × partner): 0.50
Best CI (JIMT-1, compound A × partner): 0.29
Best CI (KPL-1, compound A × partner): 0.65
Best CI [12]: 0.34
Best CI [13]: 0.32
Best CI [14]: 0.77
Best CI [15]: 0.87
Best CI [16]: 0.51
Best CI [17]: 0.45
Best CI [18]: 0.36
Best CI (SK-BR-3 cells, Compound A × partner agent): 0.15
Best CI [19]: 1.37
Best CI [20]: 0.41
Best CI [21]: 0.73
Best CI [22]: 0.31

CC(=O)c1c(C)c2cnc(Nc3ccc(N4CCNCC4)cn3)nc2n(C2CCCC2)c1=O [PD-0332991]
Best CI [1]: 1.01
Bliss Volume [1]: −1.48
HSA volume [1]: −4.75
Loewe Volume [1]: −4.99
Synergy Score [1]: 1.50
Best CI [2]: 1.30
Bliss Volume [2]: −2.05
HSA volume [2]: −0.62
Loewe Volume [2]: −1.20
Synergy Score [2]: 3.95
Best CI [4]: 1.07
Bliss Volume [4]: 5.11
HSA volume [4]: 3.60
Loewe Volume [4]: 5.15
Synergy Score [4]: 3.67
Best CI [5]: 0.82
Bliss Volume [5]: −3.23
HSA volume [5]: −1.09
Loewe Volume [5]: −1.26
Synergy Score [5]: 0.38
Best CI [6]: 0.75
Bliss Volume [6]: −7.60
HSA volume [6]: −8.20
Loewe Volume [6]: −7.47
Synergy Score [6]: 0.30
Best CI [7]: 1.81
Bliss Volume [7]: −0.11
HSA volume [7]: −7.17
Loewe Volume [7]: −6.92
Synergy Score [7]: 0.11
Best CI [8]: 0.21
Bliss Volume [8]: −2.31
HSA volume [8]: −5.69
Loewe Volume [8]: −4.24
Synergy Score [8]: 0.81
Best CI [9]: 0.49
Bliss Volume [9]: −4.96
HSA volume [9]: −11.74
Loewe Volume [9]: −11.95
Synergy Score [9]: 0.99
Best CI [10]: 0.97
Bliss Volume [10]: 0.05
HSA volume [10]: −1.86
Loewe Volume [10]: −0.06
Synergy Score [10]: 0.30
Best CI [11]: 0.77
Bliss Volume [11]: −4.20
HSA volume [11]: −6.37
Loewe Volume [11]: −5.67
Synergy Score [11]: 0.21
Best CI (HCC38, compound A × partner): 0.19
Bliss Volume (HCC38, compound A × partner): −13.23
HSA volume (HCC38, compound A × partner): −17.15
Loewe Volume (HCC38, compound A × partner): −16.79
Synergy Score (HCC38, compound A × partner): 0.01
Best CI (HCC70, compound A × partner): 0.68
Bliss Volume (HCC70, compound A × partner): 4.80
HSA volume (HCC70, compound A × partner): 3.64
Loewe Volume (HCC70, compound A × partner): 4.83
Synergy Score (HCC70, compound A × partner): 8.66
Best CI (HCC1143, compound A × partner): 0.75
Bliss Volume (HCC1143, compound A × partner): −2.16
HSA volume (HCC1143, compound A × partner): −3.77
Loewe Volume (HCC1143, compound A × partner): −0.95
Synergy Score (HCC1143, compound A × partner): 1.96
Best CI (HCC1569, compound A × partner): 0.78
Bliss Volume (HCC1569, compound A × partner): 8.10
HSA volume (HCC1569, compound A × partner): 4.93
Loewe Volume (HCC1569, compound A × partner): 8.19
Synergy Score (HCC1569, compound A × partner): 5.78
Best CI (HCC1806, compound A × partner): 0.02
Bliss Volume (HCC1806, compound A × partner): −1.37
HSA volume (HCC1806, compound A × partner): −4.31
Loewe Volume (HCC1806, compound A × partner): −1.04
Synergy Score (HCC1806, compound A × partner): 0.99
Best CI (HCC1937, compound A × partner): 0.28
Bliss Volume (HCC1937, compound A × partner): 14.96
HSA volume (HCC1937, compound A × partner): 11.05
Loewe Volume (HCC1937, compound A × partner): 14.74
Synergy Score (HCC1937, compound A × partner): 21.45
Best CI (HCC1954, compound A × partner): 0.47
Bliss Volume (HCC1954, compound A × partner): −7.91
HSA volume (HCC1954, compound A × partner): −8.72
Loewe Volume (HCC1954, compound A × partner): −7.32
Synergy Score (HCC1954, compound A × partner): 1.20
Best CI (HCC2218, compound A × partner): 1.10
Bliss Volume (HCC2218, compound A × partner): −0.96
HSA volume (HCC2218, compound A × partner): −1.25
Loewe Volume (HCC2218, compound A × partner): −3.22
Synergy Score (HCC2218, compound A × partner): 7.27
Best CI (HDQ-P1, compound A × partner): 0.36
Bliss Volume (HDQ-P1, compound A × partner): 0.47
HSA volume (HDQ-P1, compound A × partner): −6.53
Loewe Volume (HDQ-P1, compound A × partner): −11.86
Synergy Score (HDQ-P1, compound A × partner): 0.17
Best CI (HMC-1-8, compound A × partner): 0.47
Bliss Volume (HMC-1-8, compound A × partner): 13.91
HSA volume (HMC-1-8, compound A × partner): 7.82
Loewe Volume (HMC-1-8, compound A × partner): 8.09
Synergy Score (HMC-1-8, compound A × partner): 12.76

CC/C(=C(\c1ccccc1)c1ccc(OCCN(C)C)cc1)c1ccccc1 [Tamoxifen Citrate]
Best CI [1]: 0.63
Best CI [2]: 1.22
Best CI [3]: 0.67
Best CI [4]: 0.42
Best CI [5]: 1.06
Best CI [6]: 0.49
Best CI [8]: 0.69
Best CI [9]: 0.27
Best CI [10]: 0.80
Best CI [11]: 0.68
Best CI (HCC38, compound A × partner): 0.98
Best CI (HCC70, compound A × partner): 0.50
Best CI (HCC1143, compound A × partner): 0.19
Best CI (HCC1569, compound A × partner): 0.50
Best CI (HCC1806, compound A × partner): 0.84
Best CI (HCC1937, compound A × partner): 1.02
Best CI (HCC1954, compound A × partner): 0.18
Best CI (HCC2218, compound A × partner): 0.45
Best CI (HDQ-P1, compound A × partner): 0.94
Best CI (HMC-1-8, compound A × partner): 0.58
Best CI (JIMT-1, compound A × partner): 0.38
Best CI (KPL-1, compound A × partner): 0.54
Best CI [12]: 0.41
Best CI [13]: 0.36
Best CI [14]: 1.06
Best CI [15]: 0.48
Best CI [16]: 0.30
Best CI [17]: 0.45
Best CI [18]: 0.61
Best CI (SK-BR-3 cells, combination of compound A with the named agent): 0.66
Best CI [19]: 0.20
Best CI [20]: 0.42
Best CI [21]: 0.99
Best CI [22]: 1.00
